US20180044422A1, “TREATING SOLID TUMOR BY TARGETING DECTIN-1 SIGNALING” (New York University, priority 2016, published 2018)

Columns and labels:
[1] = tested on: bone-marrow derived macrophages (BMDM); test: Dectin-1 expression in bone-marrow derived macrophages; type: cell-based, mouse; settings: cytokine added to day 8 BMDM cultures for 24h
[2] = tested on: Dectin-1/Galectin-9 interaction; test: Galectin-9 immunoprecipitation with PNGase F or lactose treatment; type: binding; settings: PNGase F pretreatment of Dectin-1 or 100 mM lactose pre-incubation of Galectin-9; SDS-PAGE
Procedure: Dectin-1 IgG Fc (8 μg; InvivoGen) was treated with PNGase F (20 μl, ˜10,000 units; New England Biolabs) following the company's non-denaturing protocol (37° C., 24 hr). PNGase F treated and untreated Dectin-1 IgG Fc samples (4 μg; InvivoGen) were added to protein G beads (25 μl, Dynabeads Protein G; novex) and the mixtures were incubated at room temperature for 10 min. The beads were washed 2× with PBS-T (pH 7.4 with 0.02% tween). Recombinant mouse Galectin-9 (4 μg; R&D Systems) was resuspended in PBS-T or a solution of 100 mM lactose in PBS-T. Galectin-9 samples were then incubated with the Dynabead/Dectin-1 IgG Fc complex for 20 min at room temperature. The Dynabeads were then washed 3× with PBS-T and transferred to a clean tube. Galectin-9 and Dectin-1 IgG Fc were eluted in SDS-PAGE buffer (PBS with 10% BME) by heating at 98° C. for 10 min. The samples were then analyzed by SDS-PAGE and stained with Coomassie Blue.

[3] = tested on: pancreatic oncogenesis in KC mice; test: KC mice endogenous pancreatic tumor model; type: in vivo, mouse; settings: Dectin-1-/- mice, 20 mg/kg i.p. five times weekly, 8 weeks, vs vehicle
Source text: C57BL/6 (H-2Kb) mice were purchased from Jackson Labs (Bar Harbor, Me.) and bred in-house. KC and KPC mice develop pancreatic neoplasia endogenously by expressing mutant Kras alone or mutant Kras and p53, respectively, in the progenitor cells of the pancreas (Hingorani et al., Cancer Cell, 2003, 4, 437-450; Hingorani et al., Cancer Cell, 2005, 7, 469-483). Tumor progression and survival in control KC mice has been previously detailed (Daley et al., Cell, 2016, 166, 1485-1499). Dectin-1^−/− mice were crossed with KC mice to generate KC; Dectin-1^−/− animals. For orthotopic pancreatic tumor challenge, mice were administered intra-pancreatic injections of either Kras^G12D PDEC or FC1242 tumor cells derived from KPC mice. Kras^G12D PDEC and FC1242 cells were generated as previously described (Pylayeva-Gupta et al., Cancer Cell, 2012, 21, 836-847; Zambirinis et al., J Exp Med., 2015, 212, 2077-2094). […] Mice were sacrificed 3 weeks later and tumor weight recorded. […] PDEC proliferation was measured using the XTT assay according to the manufacturer's protocol (Roche, Nutley, N.J.). […]
For histological analysis, pancreatic specimens were fixed with 10% buffered formalin, dehydrated in ethanol, embedded with paraffin, and stained with H&E or Gomori's Trichrome. The fraction of preserved acinar area was calculated as previously described (Seifert et al., Nature, 2016, 532, 245-249). […]

Compound: TGF-3: cytokine added to BMDM cultures; printed TGF-β in methods
- Dectin-1 expression in BMDM [1]: did not influence Dectin-1 expression

Compound: TNF-α
- Dectin-1 expression in BMDM [1]: did not influence Dectin-1 expression

Compound: OC[C@H]1O[C@@H](O[C@H]2[C@H](O)[C@@H](O)C(O)O[C@@H]2CO)[C@H](O)[C@@H](O)[C@H]1O (stereo partly shown) [lactose]
- effect on Dectin-1/Galectin-9 binding [2]: no alteration of the Dectin-1/Galectin-9 interaction

Compound: Oc1cc(O)cc(/C=C/c2ccc(O)c(O)c2)c1 [Piceatannol]
- pancreatic tumor weight [3]: no effect
